± gives the expanded uncertainty stated by the source.
Conditions: Liquid, Closed cell (Static) method

| Structure (SMILES) | vapor or sublimation pressure (283.15 K) | vapor or sublimation pressure (293.15 K) | vapor or sublimation pressure (303.15 K) | vapor or sublimation pressure (313.15 K) | vapor or sublimation pressure (323.15 K) |
| --- | --- | --- | --- | --- | --- |
| CCF [fluoroethane] | 601.2 ± 1.3 kPa | 805.6 ± 1.5 kPa | 1058.8 ± 1.8 kPa | 1365.8 ± 2.2 kPa | 1735.2 ± 2.7 kPa |
| C=C(F)C(F)(F)F [2,3,3,3-tetrafluoro-1-propene] | 437.9 ± 1.2 kPa | 591.5 ± 1.3 kPa | 782.9 ± 1.5 kPa | 1018.2 ± 1.8 kPa | 1302.4 ± 2.1 kPa |

From the NIST ThermoML archive (doi:10.1016/j.fluid.2015.02.014)
